Values belong to the molecule of their own block, whether it stands above or below them.
What was measured:
[1] = target: T1, Ketohexokinase (Homo sapiens, UniProt P50053); assay: Inhibition of KHKC in human HepG2 cells assessed as level of fructose-1-phosphate; type: cell-based
T1 sequence (P50053 whole entry): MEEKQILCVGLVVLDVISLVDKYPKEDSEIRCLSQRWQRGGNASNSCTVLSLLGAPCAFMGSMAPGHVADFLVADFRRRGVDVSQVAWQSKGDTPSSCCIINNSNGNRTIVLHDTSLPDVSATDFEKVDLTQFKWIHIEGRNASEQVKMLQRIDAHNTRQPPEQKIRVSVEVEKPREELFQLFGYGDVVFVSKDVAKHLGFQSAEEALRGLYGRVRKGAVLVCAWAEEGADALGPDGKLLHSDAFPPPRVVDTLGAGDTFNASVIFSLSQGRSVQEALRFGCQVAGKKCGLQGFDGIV

[2] = target: T1, Ketohexokinase; assay: Inhibition of recombinant human hepatic KHKC
[3] = target: Ribosomal protein S6 kinase alpha-3 (Homo sapiens, UniProt P51812); assay: Inhibition of RPS6KA3 by FRET assay
[4] = target: cAMP-dependent protein kinase catalytic subunit alpha (Homo sapiens, UniProt P17612); assay: Inhibition of PRKACA by FRET assay
[5] = target: Casein kinase I isoform delta (Homo sapiens, UniProt P48730); assay: Inhibition of CSNK1D by FRET assay
[6] = target: Ephrin type-B receptor 1 (Homo sapiens, UniProt P54762); assay: Inhibition of EPHB1 by FRET assay
[7] = target: AMP-activated protein kinase (AMPK) alpha-1/beta-1/gamma-1 (Homo sapiens, UniProt P54619+Q13131+Q9Y478); assay: Inhibition of AMPK A1/B1/G1 by FRET assay; type: protein-complex assay
[8] = target: Serine/threonine-protein kinase 26 (Homo sapiens, UniProt Q9P289); assay: Inhibition of MST4 by FRET assay
[9] = target: Rho-associated protein kinase 1 (Homo sapiens, UniProt Q13464); assay: Inhibition of ROCK1 by FRET assay
[10] = target: Protein kinase C theta type (Homo sapiens, UniProt Q04759); assay: Inhibition of PRKCQ by FRET assay
[11] = target: Tyrosine-protein kinase JAK2 (Homo sapiens, UniProt O60674); assay: Inhibition of JAK2 by FRET assay
[12] = target: Death-associated protein kinase 3 (Homo sapiens, UniProt O43293); assay: Inhibition of DAPK3 by FRET assay
[13] = target: Glycogen synthase kinase-3 beta (Homo sapiens, UniProt P49841); assay: Inhibition of GSK3B by FRET assay
[14] = target: Aurora kinase A (Homo sapiens, UniProt O14965); assay: Inhibition of AURKA by FRET assay
[15] = target: High affinity nerve growth factor receptor (Homo sapiens, UniProt P04629); assay: Inhibition of NTRK1 by FRET assay
[16] = target: Mitogen-activated protein kinase 13 (Homo sapiens, UniProt O15264); assay: Inhibition of MAPK13 by FRET assay
[17] = target: Calcium/calmodulin-dependent protein kinase type 1D (Homo sapiens, UniProt Q8IU85); assay: Inhibition of CAMK1D by FRET assay
[18] = target: Serine/threonine-protein kinase Nek2 (Homo sapiens, UniProt P51955); assay: Inhibition of NEK2 by FRET assay
[19] = target: Activin receptor type-1B (Homo sapiens, UniProt P36896); assay: Inhibition of ALK4 by FRET assay
[20] = target: Tyrosine-protein kinase ABL1 (Homo sapiens, UniProt P00519); assay: Inhibition of ABL1 by FRET assay
[21] = target: Serine/threonine-protein kinase pim-2 (Homo sapiens, UniProt Q9P1W9); assay: Inhibition of PIM2 by FRET assay
[22] = target: Serine/threonine-protein kinase Chk2 (Homo sapiens, UniProt O96017); assay: Inhibition of CHEK2 by FRET assay
[23] = target: Serine/threonine-protein kinase PAK 3 (Homo sapiens, UniProt O75914); assay: Inhibition of PAK3 by FRET assay
[24] = target: Interleukin-1 receptor-associated kinase 4 (Homo sapiens, UniProt Q9NWZ3); assay: Inhibition of IRAK4 by FRET assay
[25] = target: Serine/threonine-protein kinase Chk1 (Homo sapiens, UniProt O14757); assay: Inhibition of CHEK1 by FRET assay
[26] = target: RAC-alpha serine/threonine-protein kinase (Homo sapiens, UniProt P31749); assay: Inhibition of AKT1 by FRET assay
[27] = target: Serine/threonine-protein kinase PLK3 (Homo sapiens, UniProt Q9H4B4); assay: Inhibition of PLK3 by FRET assay
[28] = target: Cyclin-dependent kinase 1/cyclin B1 (Homo sapiens, UniProt P06493); assay: Inhibition of CDK1/cyclin B by FRET assay; type: protein-complex assay

Chain of High affinity nerve growth factor receptor (P04629 whole entry): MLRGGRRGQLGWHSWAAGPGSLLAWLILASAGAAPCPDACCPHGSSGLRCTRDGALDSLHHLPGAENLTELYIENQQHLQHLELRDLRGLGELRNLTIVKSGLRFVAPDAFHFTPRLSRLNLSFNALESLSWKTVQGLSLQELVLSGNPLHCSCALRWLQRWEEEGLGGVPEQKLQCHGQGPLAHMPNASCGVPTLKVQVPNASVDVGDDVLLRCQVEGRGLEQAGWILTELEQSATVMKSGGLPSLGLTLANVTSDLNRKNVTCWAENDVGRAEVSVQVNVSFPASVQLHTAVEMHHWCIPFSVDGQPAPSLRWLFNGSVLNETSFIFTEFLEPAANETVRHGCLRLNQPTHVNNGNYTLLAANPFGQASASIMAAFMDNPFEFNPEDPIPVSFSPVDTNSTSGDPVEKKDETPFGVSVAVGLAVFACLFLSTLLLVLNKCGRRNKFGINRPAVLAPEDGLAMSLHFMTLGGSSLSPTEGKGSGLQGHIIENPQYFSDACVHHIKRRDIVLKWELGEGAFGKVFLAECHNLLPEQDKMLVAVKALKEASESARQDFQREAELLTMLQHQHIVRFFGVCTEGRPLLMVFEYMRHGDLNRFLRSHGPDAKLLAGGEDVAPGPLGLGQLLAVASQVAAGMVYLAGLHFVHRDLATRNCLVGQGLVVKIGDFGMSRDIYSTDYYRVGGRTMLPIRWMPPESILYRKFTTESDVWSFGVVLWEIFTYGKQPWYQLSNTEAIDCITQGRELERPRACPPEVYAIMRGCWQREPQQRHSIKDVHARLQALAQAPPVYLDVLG
Chain of Serine/threonine-protein kinase PLK3 (Q9H4B4 whole entry): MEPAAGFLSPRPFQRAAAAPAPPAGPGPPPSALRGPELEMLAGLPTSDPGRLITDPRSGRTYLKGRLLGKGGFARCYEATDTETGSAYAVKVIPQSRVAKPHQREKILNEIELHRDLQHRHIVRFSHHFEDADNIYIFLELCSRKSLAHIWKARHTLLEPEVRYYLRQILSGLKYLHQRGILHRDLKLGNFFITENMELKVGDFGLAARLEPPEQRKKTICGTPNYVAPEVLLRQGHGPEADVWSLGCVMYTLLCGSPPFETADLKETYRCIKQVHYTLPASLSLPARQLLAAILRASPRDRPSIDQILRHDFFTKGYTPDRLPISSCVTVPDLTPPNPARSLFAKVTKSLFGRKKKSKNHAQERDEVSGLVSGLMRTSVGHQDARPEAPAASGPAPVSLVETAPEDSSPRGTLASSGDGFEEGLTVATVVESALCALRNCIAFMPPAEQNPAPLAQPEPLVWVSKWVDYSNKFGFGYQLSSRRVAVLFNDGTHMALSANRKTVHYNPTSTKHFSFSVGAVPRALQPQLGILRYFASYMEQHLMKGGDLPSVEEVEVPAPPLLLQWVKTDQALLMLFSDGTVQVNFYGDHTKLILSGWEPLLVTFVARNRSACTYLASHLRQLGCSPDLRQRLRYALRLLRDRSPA
Chain of Glycogen synthase kinase-3 beta (P49841 whole entry): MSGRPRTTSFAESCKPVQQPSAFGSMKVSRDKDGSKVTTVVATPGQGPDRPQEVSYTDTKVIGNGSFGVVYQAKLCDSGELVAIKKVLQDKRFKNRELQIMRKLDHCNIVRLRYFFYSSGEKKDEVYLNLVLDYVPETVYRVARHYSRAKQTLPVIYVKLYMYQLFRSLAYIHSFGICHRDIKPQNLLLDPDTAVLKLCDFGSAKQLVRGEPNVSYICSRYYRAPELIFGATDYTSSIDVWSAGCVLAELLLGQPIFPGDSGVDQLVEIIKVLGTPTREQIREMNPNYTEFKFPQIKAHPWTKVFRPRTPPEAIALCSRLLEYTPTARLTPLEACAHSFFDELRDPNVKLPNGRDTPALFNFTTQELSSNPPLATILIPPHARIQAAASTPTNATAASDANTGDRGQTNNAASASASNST
Chain of Ribosomal protein S6 kinase alpha-3 (P51812 whole entry): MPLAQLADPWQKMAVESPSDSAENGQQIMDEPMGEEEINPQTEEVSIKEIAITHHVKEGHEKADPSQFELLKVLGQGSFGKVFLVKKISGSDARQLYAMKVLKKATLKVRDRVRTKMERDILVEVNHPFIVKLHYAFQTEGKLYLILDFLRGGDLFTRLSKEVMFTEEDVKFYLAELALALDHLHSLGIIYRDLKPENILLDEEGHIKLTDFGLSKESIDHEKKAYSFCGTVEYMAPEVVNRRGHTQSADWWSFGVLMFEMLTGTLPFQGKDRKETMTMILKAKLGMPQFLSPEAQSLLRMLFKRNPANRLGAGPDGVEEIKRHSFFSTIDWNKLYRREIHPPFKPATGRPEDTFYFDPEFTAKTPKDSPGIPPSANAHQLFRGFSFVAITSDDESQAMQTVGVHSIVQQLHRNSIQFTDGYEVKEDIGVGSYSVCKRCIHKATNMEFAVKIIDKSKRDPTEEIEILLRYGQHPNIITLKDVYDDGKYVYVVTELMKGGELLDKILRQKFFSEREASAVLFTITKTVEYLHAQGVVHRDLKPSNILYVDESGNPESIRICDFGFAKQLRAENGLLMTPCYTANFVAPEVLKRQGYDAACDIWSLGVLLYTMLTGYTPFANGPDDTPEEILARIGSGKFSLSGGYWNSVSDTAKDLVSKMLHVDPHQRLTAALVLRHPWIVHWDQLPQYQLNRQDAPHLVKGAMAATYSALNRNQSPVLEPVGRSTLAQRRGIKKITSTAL
Chain of Serine/threonine-protein kinase pim-2 (Q9P1W9 whole entry): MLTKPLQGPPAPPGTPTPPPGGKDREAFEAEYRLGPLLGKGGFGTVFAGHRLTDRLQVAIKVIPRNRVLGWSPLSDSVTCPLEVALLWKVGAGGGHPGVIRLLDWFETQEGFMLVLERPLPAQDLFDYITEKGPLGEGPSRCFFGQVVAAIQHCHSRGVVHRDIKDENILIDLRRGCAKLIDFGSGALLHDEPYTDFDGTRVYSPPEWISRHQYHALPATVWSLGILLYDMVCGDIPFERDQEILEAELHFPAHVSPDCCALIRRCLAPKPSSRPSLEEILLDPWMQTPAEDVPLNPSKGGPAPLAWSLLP
Chain of Casein kinase I isoform delta (P48730 whole entry, canonical isoform): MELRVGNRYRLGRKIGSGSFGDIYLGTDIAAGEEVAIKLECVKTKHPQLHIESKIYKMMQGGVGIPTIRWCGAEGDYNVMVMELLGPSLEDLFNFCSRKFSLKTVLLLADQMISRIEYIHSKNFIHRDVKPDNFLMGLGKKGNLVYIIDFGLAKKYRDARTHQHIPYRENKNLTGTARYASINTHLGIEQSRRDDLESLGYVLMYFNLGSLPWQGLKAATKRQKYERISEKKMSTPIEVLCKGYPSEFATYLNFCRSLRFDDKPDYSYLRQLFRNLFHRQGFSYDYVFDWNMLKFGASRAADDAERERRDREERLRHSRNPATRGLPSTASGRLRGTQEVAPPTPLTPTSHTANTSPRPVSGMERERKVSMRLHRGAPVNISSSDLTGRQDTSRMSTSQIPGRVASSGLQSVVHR
Chain of AMP-activated protein kinase (AMPK) alpha-1/beta-1/gamma-1 (P54619 whole entry): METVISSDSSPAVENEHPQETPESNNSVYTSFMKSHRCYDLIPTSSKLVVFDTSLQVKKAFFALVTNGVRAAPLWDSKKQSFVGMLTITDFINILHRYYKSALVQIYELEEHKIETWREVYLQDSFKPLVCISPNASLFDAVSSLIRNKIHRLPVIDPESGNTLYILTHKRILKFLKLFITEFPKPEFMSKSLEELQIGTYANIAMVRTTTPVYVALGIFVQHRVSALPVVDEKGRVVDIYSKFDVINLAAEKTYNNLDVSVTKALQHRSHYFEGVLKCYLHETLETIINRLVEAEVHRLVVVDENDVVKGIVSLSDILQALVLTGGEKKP
Chain of AMP-activated protein kinase (AMPK) alpha-1/beta-1/gamma-1 (Q9Y478 whole entry): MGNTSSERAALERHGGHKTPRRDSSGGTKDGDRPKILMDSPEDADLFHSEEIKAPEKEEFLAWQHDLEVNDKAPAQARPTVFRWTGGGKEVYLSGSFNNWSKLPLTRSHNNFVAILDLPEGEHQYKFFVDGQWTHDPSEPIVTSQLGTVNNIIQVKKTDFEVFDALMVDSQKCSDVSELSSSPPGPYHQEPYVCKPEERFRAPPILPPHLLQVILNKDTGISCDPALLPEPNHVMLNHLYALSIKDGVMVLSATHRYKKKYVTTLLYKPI
Chain of AMP-activated protein kinase (AMPK) alpha-1/beta-1/gamma-1 (Q13131 whole entry): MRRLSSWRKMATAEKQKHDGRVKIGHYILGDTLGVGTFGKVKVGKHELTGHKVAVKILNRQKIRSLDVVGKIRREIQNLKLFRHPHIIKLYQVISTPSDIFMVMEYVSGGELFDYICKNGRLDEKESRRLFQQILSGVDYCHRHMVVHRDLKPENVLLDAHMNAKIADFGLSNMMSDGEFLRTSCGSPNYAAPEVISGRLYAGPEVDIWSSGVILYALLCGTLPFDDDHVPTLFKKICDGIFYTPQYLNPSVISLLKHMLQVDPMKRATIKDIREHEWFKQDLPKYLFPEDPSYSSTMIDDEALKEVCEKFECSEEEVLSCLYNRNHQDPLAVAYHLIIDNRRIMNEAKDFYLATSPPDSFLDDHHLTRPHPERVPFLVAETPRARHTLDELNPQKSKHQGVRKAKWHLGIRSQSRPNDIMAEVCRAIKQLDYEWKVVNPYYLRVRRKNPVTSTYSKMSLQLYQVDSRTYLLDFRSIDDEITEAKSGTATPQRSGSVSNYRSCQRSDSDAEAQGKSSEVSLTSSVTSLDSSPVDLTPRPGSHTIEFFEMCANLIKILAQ
Chain of Calcium/calmodulin-dependent protein kinase type 1D (Q8IU85 whole entry): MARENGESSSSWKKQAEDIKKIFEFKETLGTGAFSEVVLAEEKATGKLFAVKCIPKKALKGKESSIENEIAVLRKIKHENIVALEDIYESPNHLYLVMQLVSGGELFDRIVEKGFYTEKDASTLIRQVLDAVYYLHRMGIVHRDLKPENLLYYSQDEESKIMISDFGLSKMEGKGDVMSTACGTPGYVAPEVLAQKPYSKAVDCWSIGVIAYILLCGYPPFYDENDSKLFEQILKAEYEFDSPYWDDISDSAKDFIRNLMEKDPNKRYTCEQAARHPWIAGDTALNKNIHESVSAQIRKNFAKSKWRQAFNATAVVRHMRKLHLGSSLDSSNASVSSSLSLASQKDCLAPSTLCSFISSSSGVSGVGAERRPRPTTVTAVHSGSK

Structure (SMILES): CSc1ccccc1Nc1nc(N2CCNCC2)nc2c(NCC3CC3)ncnc12
IC50 [1]: < 500 nM

Structure (SMILES): CSc1ccccc1Nc1nc(N2CCNC(C)C2)nc2c(NCC3CC3)ncnc12 (stereo not given)
IC50 [2]: 70 nM

Structure (SMILES): CSc1ccccc1Nc1nc(N2C[C@@H](C)N[C@@H](C)C2)nc2c(NCC3CC3)ncnc12
IC50 [2]: 110 nM

Structure (SMILES): CSc1ccccc1Nc1nc(N(C)CC2CCNCC2)nc2c(NCC3CC3)ncnc12
IC50 [2]: 66 nM

Structure (SMILES): CSc1ccccc1Nc1nc(N2CCC[C@@H]3CNC[C@@H]32)nc2c(NCC3CC3)ncnc12
IC50 [2]: 440 nM

Structure (SMILES): CSc1ccccc1Nc1nc(N2C[C@@H]3CCCN[C@@H]3C2)nc2c(NCC3CC3)ncnc12
IC50 [2]: 300 nM

Structure (SMILES): CSc1ccccc1Nc1nc(N2C[C@@H]3C[C@H]2CN3)nc2c(NCC3CC3)ncnc12
IC50 [2]: 4600 nM

Structure (SMILES): CSc1ccccc1Nc1nc(N2C3CCC2CC(N)C3)nc2c(NCC3CC3)ncnc12 (stereo not given)
IC50 [2]: 800 nM

Structure (SMILES): CSc1ccccc1Nc1nc(N2CCNc3ccccc3C2)nc2c(NCC3CC3)ncnc12
IC50 [2]: 6000 nM

Continued by falling IC50 [2], values first:

IC50 [2]: 58 nM
Structure (SMILES): CSc1ccccc1Nc1nc(N2CCNC[C@H]2C)nc2c(NCC3CC3)ncnc12

IC50 [2]: 50 nM
Structure (SMILES): CSc1ccccc1Nc1nc(N2CCC(C3CCNCC3)CC2)nc2c(NCC3CC3)ncnc12

IC50 [3]: < 10000 nM | IC50 [4]: < 10000 nM | IC50 [5]: < 10000 nM | IC50 [6]: < 10000 nM | IC50 [7]: < 10000 nM | IC50 [8]: < 10000 nM | IC50 [9]: < 10000 nM | IC50 [10]: < 10000 nM | IC50 [11]: < 10000 nM | IC50 [13]: < 10000 nM | IC50 [14]: < 10000 nM | IC50 [15]: < 10000 nM | IC50 [16]: < 10000 nM | IC50 [17]: < 10000 nM | IC50 [18]: < 10000 nM | IC50 [19]: < 10000 nM | IC50 [20]: < 10000 nM | IC50 [21]: < 10000 nM | IC50 [22]: < 10000 nM | IC50 [23]: < 10000 nM | IC50 [2]: 48 nM | IC50 [24]: < 10000 nM | IC50 [25]: < 10000 nM | IC50 [26]: < 10000 nM | IC50 [27]: < 10000 nM | IC50 [28]: < 10000 nM
Structure (SMILES): CSc1ccccc1Nc1nc(N2CCN(C3CCNCC3)CC2)nc2c(NCC3CC3)ncnc12
IC50 [12]: < 10000 nM

IC50 [2]: 43 nM
Structure (SMILES): CSc1ccccc1Nc1nc(N2CCC3(CCNC3)C2)nc2c(NCC3CC3)ncnc12 (stereo not given)

IC50 [2]: 40 nM
Structure (SMILES): CSc1ccccc1Nc1nc(N2CCNC(C)(C)C2)nc2c(NCC3CC3)ncnc12

IC50 [2]: 30 nM
Structure (SMILES): CSc1ccccc1Nc1nc(N2CCC(N3CCN(C)CC3)CC2)nc2c(NCC3CC3)ncnc12

IC50 [2]: 28 nM
Structure (SMILES): CSc1ccccc1Nc1nc(N2CCC(N3CCNCC3)CC2)nc2c(NCC3CC3)ncnc12

IC50 [2]: 15 nM
Structure (SMILES): CSc1ccccc1Nc1nc(N2CCC3(CCNCC3)CC2)nc2c(NCC3CC3)ncnc12

IC50 [1]: 150 nM | IC50 [2]: 2 nM
Structure (SMILES): CSc1ccccc1Nc1nc(N2CCC3(CNC3)C2)nc2c(NCC3CC3)ncnc12

Source: ChEMBL document CHEMBL2062359, “Pyrimidinopyrimidine inhibitors of ketohexokinase: exploring the ring C2 group that interacts with Asp-27B in the ligand binding pocket” (Bioorg Med Chem Lett, 2012)
